From patent publication US20230085307A1, “PYRIDAZINONE COMPOUND AND HERBICIDE” (NISSAN CHEMICAL CORPORATION, priority 2019, published 2023)

What was measured:
blackgrass [1] = assay: Test Example 5: herbicidal effect by foliage application, plastic box (Table 20, symbol J); format: in vivo, blackgrass (Alopecurus myosuroides); settings: foliage application, 320 g/ha
Outline: (§1)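 Post-emergence foliar test in sterilized diluvial soil. Compound applied as water-diluted emulsion at a predetermined rate to 14-day-old plants; evaluation at three weeks.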

velvetleaf [2] = assay: Test Example 4: herbicidal effect by soil treatment (Table 19, symbol M); format: in vivo, velvetleaf (Abutilon theophrasti); settings: amount of applied herbicide 320 g/ha
Outline: (§2)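 Scoring uses the grading scale of an earlier test, three weeks post-application. Treatment consists of spraying a diluted emulsion formulation across the surface of sterilized diluvial soil in which seeds are buried near 1.5 cm deep; boxes are kept in a greenhouse between 25° C. and 30° C.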

rice flat sedge = assay: Test Example 3: herbicidal effect by foliage application, Wagner pot (Table 18, symbol E); format: in vivo, rice flat sedge (Cyperus iria)
Outline: (§3)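 Plants were sown in alluvial soil held under 0.1–0.5 cm standing water and grown 14 days in a greenhouse at 25–30 °C. An emulsifiable formulation, water-diluted to the set dose, was then sprayed onto the foliage, and effects were scored three weeks later using previously defined criteria.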

Chinese sprangletop = assay: Test Example 3: herbicidal effect by foliage application, Wagner pot (Table 18, symbol D); format: in vivo, chinese sprangletop (Leptochloa chinensis)
Outline: as §3

wild oat [3] = assay: Test Example 4: herbicidal effect by soil treatment (Table 19, symbol I); format: in vivo, wild oat (Avena fatua); settings: amount of applied herbicide 320 g/ha
Outline: as §2

persian speedwell [4] = assay: Test Example 4: herbicidal effect by soil treatment (Table 19, symbol R); format: in vivo, Persian speedwell (Veronica persica); settings: amount of applied herbicide 320 g/ha
Outline: as §2

barnyard grass [5] = assay: Test Example 5: herbicidal effect by foliage application, plastic box (Table 20, symbol H); format: in vivo, barnyard grass (Echinochloa crus-galli); settings: foliage application, 320 g/ha
Outline: as §1

lambsquarters [6] = assay: Test Example 5: herbicidal effect by foliage application, plastic box (Table 20, symbol O); format: in vivo, lambsquarters (Chenopodium album); settings: foliage application, 320 g/ha
Outline: as §1

green foxtail [7] = assay: Test Example 5: herbicidal effect by foliage application, plastic box (Table 20, symbol G); format: in vivo, green foxtail (Setaria viridis); settings: foliage application, 320 g/ha
Outline: as §1

persian speedwell [8] = assay: Test Example 5: herbicidal effect by foliage application, plastic box (Table 20, symbol R); format: in vivo, Persian speedwell (Veronica persica); settings: foliage application, 320 g/ha
Outline: as §1

blackgrass [9] = assay: Test Example 4: herbicidal effect by soil treatment (Table 19, symbol J); format: in vivo, blackgrass (Alopecurus myosuroides); settings: amount of applied herbicide 320 g/ha
Outline: as §2

windgrass [10] = assay: Test Example 4: herbicidal effect by soil treatment (Table 19, symbol L); format: in vivo, windgrass (Apera spica-venti); settings: amount of applied herbicide 320 g/ha
Outline: as §2

false cleavers [11] = assay: Test Example 5: herbicidal effect by foliage application, plastic box (Table 20, symbol Q); format: in vivo, false cleavers (Galium spurium); settings: foliage application, 320 g/ha
Outline: as §1

windgrass [12] = assay: Test Example 5: herbicidal effect by foliage application, plastic box (Table 20, symbol L); format: in vivo, windgrass (Apera spica-venti); settings: foliage application, 320 g/ha
Outline: as §1

wild oat [13] = assay: Test Example 5: herbicidal effect by foliage application, plastic box (Table 20, symbol I); format: in vivo, wild oat (Avena fatua); settings: foliage application, 320 g/ha
Outline: as §1

chickweed [14] = assay: Test Example 4: herbicidal effect by soil treatment (Table 19, symbol P); format: in vivo, common chickweed (Stellaria media); settings: amount of applied herbicide 320 g/ha
Outline: as §2

southern crabgrass [15] = assay: Test Example 4: herbicidal effect by soil treatment (Table 19, symbol F); format: in vivo, southern crabgrass (Digitaria ciliaris); settings: amount of applied herbicide 320 g/ha
Outline: as §2

southern crabgrass [16] = assay: Test Example 5: herbicidal effect by foliage application, plastic box (Table 20, symbol F); format: in vivo, southern crabgrass (Digitaria ciliaris); settings: foliage application, 320 g/ha
Outline: as §1

redroot pigweed [17] = assay: Test Example 5: herbicidal effect by foliage application, plastic box (Table 20, symbol N); format: in vivo, redroot pigweed (Amaranthus retroflexus); settings: foliage application, 320 g/ha
Outline: as §1

chickweed [18] = assay: Test Example 5: herbicidal effect by foliage application, plastic box (Table 20, symbol P); format: in vivo, common chickweed (Stellaria media); settings: foliage application, 320 g/ha
Outline: as §1

Italian ryegrass [19] = assay: Test Example 5: herbicidal effect by foliage application, plastic box (Table 20, symbol K); format: in vivo, Italian ryegrass (Lolium multiflorum); settings: foliage application, 320 g/ha
Outline: as §1

barnyard grass [20] = assay: Test Example 4: herbicidal effect by soil treatment (Table 19, symbol H); format: in vivo, barnyard grass (Echinochloa crus-galli); settings: amount of applied herbicide 320 g/ha
Outline: as §2

velvetleaf [21] = assay: Test Example 5: herbicidal effect by foliage application, plastic box (Table 20, symbol M); format: in vivo, velvetleaf (Abutilon theophrasti); settings: foliage application, 320 g/ha
Outline: as §1

Italian ryegrass [22] = assay: Test Example 4: herbicidal effect by soil treatment (Table 19, symbol K); format: in vivo, Italian ryegrass (Lolium multiflorum); settings: amount of applied herbicide 320 g/ha
Outline: as §2

lambsquarters [23] = assay: Test Example 4: herbicidal effect by soil treatment (Table 19, symbol O); format: in vivo, lambsquarters (Chenopodium album); settings: amount of applied herbicide 320 g/ha
Outline: as §2

false cleavers [24] = assay: Test Example 4: herbicidal effect by soil treatment (Table 19, symbol Q); format: in vivo, false cleavers (Galium spurium); settings: amount of applied herbicide 320 g/ha
Outline: as §2

barnyard grass [25] = assay: Test Example 3: herbicidal effect by foliage application, Wagner pot (Table 18, symbol H); format: in vivo, barnyard grass (Echinochloa crus-galli)
Outline: as §3

redroot pigweed [26] = assay: Test Example 4: herbicidal effect by soil treatment (Table 19, symbol N); format: in vivo, redroot pigweed (Amaranthus retroflexus); settings: amount of applied herbicide 320 g/ha
Outline: as §2

green foxtail [27] = assay: Test Example 4: herbicidal effect by soil treatment (Table 19, symbol G); format: in vivo, green foxtail (Setaria viridis); settings: amount of applied herbicide 320 g/ha
Outline: as §2

[28] = evaluated three weeks after application
[29] = amount of applied herbicide 320 g/ha

With `CCCC(=O)Oc1c(C)nn(C)c(=O)c1-c1c(-c2cc(F)ccc2OC)sc2ccc(C)cc12` [2-151] the “herbicidal effect on J: blackgrass (criteria 0-5)” value (blackgrass [1]; [28]) was 0 (Herbicidal rate of 5% or less (almost no effect)), the “M: velvetleaf, herbicidal effect rating” value (velvetleaf [2]) was 0 (Herbicidal rate of 5% or less (almost no effect)) and the “herbicidal effect on E: rice flat sedge” value (rice flat sedge; [29]) was 3 (Herbicidal rate of 40% or more and less than 70%). The “herbicidal effect on D: Chinese sprangletop” value (Chinese sprangletop; [29]) was 0 (Herbicidal rate of 5% or less (almost no effect)), the “I: wild oat, herbicidal effect rating” value (wild oat [3]) was 0 (Herbicidal rate of 5% or less (almost no effect)) and the “R: persian speedwell, herbicidal effect rating” value (persian speedwell [4]) was 3 (Herbicidal rate of 40% or more and less than 70%). The “herbicidal effect on H: barnyard grass (criteria 0-5)” value (barnyard grass [5]; [28]) was 0 (Herbicidal rate of 5% or less (almost no effect)), the “herbicidal effect on O: lambsquarters (criteria 0-5)” value (lambsquarters [6]; [28]) was 2 (Herbicidal rate of 20% or more and less than 40%) and the “herbicidal effect on G: green foxtail (criteria 0-5)” value (green foxtail [7]; [28]) was 0 (Herbicidal rate of 5% or less (almost no effect)). For the same molecule, the “herbicidal effect on R: persian speedwell (criteria 0-5)” value (persian speedwell [8]; [28]) was 4 (Herbicidal rate of 70% or more and less than 90%), the “J: blackgrass, herbicidal effect rating” value (blackgrass [9]) was 0 (Herbicidal rate of 5% or less (almost no effect)) and the “L: windgrass, herbicidal effect rating” value (windgrass [10]) was 0 (Herbicidal rate of 5% or less (almost no effect)). For the same molecule, the “herbicidal effect on Q: false cleavers (criteria 0-5)” value (false cleavers [11]; [28]) was 2 (Herbicidal rate of 20% or more and less than 40%), the “herbicidal effect on L: windgrass (criteria 0-5)” value (windgrass [12]; [28]) was 0 (Herbicidal rate of 5% or less (almost no effect)) and the “herbicidal effect on I: wild oat (criteria 0-5)” value (wild oat [13]; [28]) was 0 (Herbicidal rate of 5% or less (almost no effect)). For the same molecule, the “P: chickweed, herbicidal effect rating” value (chickweed [14]) was 1 (Herbicidal rate of 5% or more and less than 20%), the “F: southern crabgrass, herbicidal effect rating” value (southern crabgrass [15]) was 0 (Herbicidal rate of 5% or less (almost no effect)) and the “herbicidal effect on F: southern crabgrass (criteria 0-5)” value (southern crabgrass [16]; [28]) was 0 (Herbicidal rate of 5% or less (almost no effect)). For the same molecule, the “herbicidal effect on N: redroot pigweed (criteria 0-5)” value (redroot pigweed [17]; [28]) was 3 (Herbicidal rate of 40% or more and less than 70%), the “herbicidal effect on P: chickweed (criteria 0-5)” value (chickweed [18]; [28]) was 4 (Herbicidal rate of 70% or more and less than 90%) and the “herbicidal effect on K: Italian ryegrass (criteria 0-5)” value (Italian ryegrass [19]; [28]) was 0 (Herbicidal rate of 5% or less (almost no effect)). The “H: barnyard grass, herbicidal effect rating” value (barnyard grass [20]) was 0 (Herbicidal rate of 5% or less (almost no effect)), the “herbicidal effect on M: velvetleaf (criteria 0-5)” value (velvetleaf [21]; [28]) was 1 (Herbicidal rate of 5% or more and less than 20%) and the “K: Italian ryegrass, herbicidal effect rating” value (Italian ryegrass [22]) was 0 (Herbicidal rate of 5% or less (almost no effect)). For the same molecule, the “O: lambsquarters, herbicidal effect rating” value (lambsquarters [23]) was 4 (Herbicidal rate of 70% or more and less than 90%), the “Q: false cleavers, herbicidal effect rating” value (false cleavers [24]) was 0 (Herbicidal rate of 5% or less (almost no effect)) and the “herbicidal effect on H: barnyard grass” value (barnyard grass [25]; [29]) was 3 (Herbicidal rate of 40% or more and less than 70%). The “N: redroot pigweed, herbicidal effect rating” value (redroot pigweed [26]) was 4 (Herbicidal rate of 70% or more and less than 90%) and the “G: green foxtail, herbicidal effect rating” value (green foxtail [27]) was 0 (Herbicidal rate of 5% or less (almost no effect)).
For `COc1ccc2c(-c3c(O)c(C)nn(C)c3=O)c(-c3ccc(F)cc3)sc2c1` [3-063], the “J: blackgrass, herbicidal effect grade” value (blackgrass [1]; three weeks after application) was 0 (Herbicidal rate of 5% or less (almost no effect)), the “M: velvetleaf, herbicidal effect grade” value (velvetleaf [2]) was 2 (Herbicidal rate of 20% or more and less than 40%) and the “herbicidal effect on rice flat sedge (E)” value (rice flat sedge; 320 g/ha) was 5 (Herbicidal rate of 90% or more (almost completely withered)). The “herbicidal effect on Chinese sprangletop (D)” value (Chinese sprangletop; 320 g/ha) was 0 (Herbicidal rate of 5% or less (almost no effect)), the “I: wild oat, herbicidal effect grade” value (wild oat [3]) was 1 (Herbicidal rate of 5% or more and less than 20%) and the “R: persian speedwell, herbicidal effect grade” value (persian speedwell [4]) was 5 (Herbicidal rate of 90% or more (almost completely withered)). The “H: barnyard grass, herbicidal effect grade” value (barnyard grass [5]; three weeks after application) was 0 (Herbicidal rate of 5% or less (almost no effect)), the “O: lambsquarters, herbicidal effect grade” value (lambsquarters [6]; three weeks after application) was 3 (Herbicidal rate of 40% or more and less than 70%) and the “G: green foxtail, herbicidal effect grade” value (green foxtail [7]; three weeks after application) was 0 (Herbicidal rate of 5% or less (almost no effect)). The “R: persian speedwell, herbicidal effect grade” value (persian speedwell [8]; three weeks after application) was 5 (Herbicidal rate of 90% or more (almost completely withered)), the “J: blackgrass, herbicidal effect grade” value (blackgrass [9]) was 0 (Herbicidal rate of 5% or less (almost no effect)) and the “L: windgrass, herbicidal effect grade” value (windgrass [10]) was 0 (Herbicidal rate of 5% or less (almost no effect)). For the same molecule, the “Q: false cleavers, herbicidal effect grade” value (false cleavers [11]; three weeks after application) was 5 (Herbicidal rate of 90% or more (almost completely withered)), the “L: windgrass, herbicidal effect grade” value (windgrass [12]; three weeks after application) was 2 (Herbicidal rate of 20% or more and less than 40%) and the “I: wild oat, herbicidal effect grade” value (wild oat [13]; three weeks after application) was 2 (Herbicidal rate of 20% or more and less than 40%). For the same molecule, the “P: chickweed, herbicidal effect grade” value (chickweed [14]) was 5 (Herbicidal rate of 90% or more (almost completely withered)), the “F: southern crabgrass, herbicidal effect grade” value (southern crabgrass [15]) was 0 (Herbicidal rate of 5% or less (almost no effect)) and the “F: southern crabgrass, herbicidal effect grade” value (southern crabgrass [16]; three weeks after application) was 0 (Herbicidal rate of 5% or less (almost no effect)). The “N: redroot pigweed, herbicidal effect grade” value (redroot pigweed [17]; three weeks after application) was 4 (Herbicidal rate of 70% or more and less than 90%), the “P: chickweed, herbicidal effect grade” value (chickweed [18]; three weeks after application) was 5 (Herbicidal rate of 90% or more (almost completely withered)) and the “K: Italian ryegrass, herbicidal effect grade” value (Italian ryegrass [19]; three weeks after application) was 3 (Herbicidal rate of 40% or more and less than 70%). The “H: barnyard grass, herbicidal effect grade” value (barnyard grass [20]) was 0 (Herbicidal rate of 5% or less (almost no effect)), the “M: velvetleaf, herbicidal effect grade” value (velvetleaf [21]; three weeks after application) was 5 (Herbicidal rate of 90% or more (almost completely withered)) and the “K: Italian ryegrass, herbicidal effect grade” value (Italian ryegrass [22]) was 0 (Herbicidal rate of 5% or less (almost no effect)). The “O: lambsquarters, herbicidal effect grade” value (lambsquarters [23]) was 5 (Herbicidal rate of 90% or more (almost completely withered)), the “Q: false cleavers, herbicidal effect grade” value (false cleavers [24]) was 2 (Herbicidal rate of 20% or more and less than 40%) and the “herbicidal effect on barnyard grass (H)” value (barnyard grass [25]; 320 g/ha) was 0 (Herbicidal rate of 5% or less (almost no effect)). For the same molecule, the “N: redroot pigweed, herbicidal effect grade” value (redroot pigweed [26]) was 3 (Herbicidal rate of 40% or more and less than 70%) and the “G: green foxtail, herbicidal effect grade” value (green foxtail [27]) was 0 (Herbicidal rate of 5% or less (almost no effect)).
